Reference: ChEMBL document CHEMBL5321210, “N-adamantyl-anthranil amide derivatives: New selective ligands for the cannabinoid receptor subtype 2 (CB2R)” (Eur J Med Chem, 2023)
The source made the active and inactive calls. No cut-off for these calls is given here.

Tests used:
THP-1 [1] = experiment: Antiinflammatory activity in human THP-1 monocytes assessed as increase in IL-4 production at 10 uM incubated for 24 hrs by ELISA coupled qRT-PCR analysis; assay type: functional, cell-based
THP-1 [2] = experiment: Antiinflammatory activity in human THP-1 monocytes assessed as decrease in TNF-alpha production at 10 uM incubated for 24 hrs in the presence of JTE907 by ELISA coupled qRT-PCR analysis; assay type: functional, cell-based
THP-1 [3] = experiment: Antiinflammatory activity in human THP-1 monocytes assessed as decrease in IFN-gamma production at 10 uM incubated for 24 hrs in the presence of JTE907 by ELISA coupled qRT-PCR analysis; assay type: functional, cell-based
THP-1 [4] = experiment: Antiinflammatory activity in human THP-1 monocytes assessed as decrease in IL-6 production at 10 uM incubated for 24 hrs in the presence of JTE907 by ELISA coupled qRT-PCR analysis; assay type: functional, cell-based
THP-1 [5] = experiment: Antiinflammatory against LPS-activated human THP-1 monocytes assessed as decrease in IFN-gamma production at 10 uM incubated for 24 hrs in the presence of JTE907 by ELISA coupled qRT-PCR analysis; assay type: functional, cell-based
THP-1 [6] = experiment: Antiinflammatory against LPS-activated human THP-1 monocytes assessed as decrease in IL-6 production at 10 uM incubated for 24 hrs in the presence of JTE907 by ELISA coupled qRT-PCR analysis; assay type: functional, cell-based
THP-1 [7] = experiment: Antiinflammatory activity in PMA-differentiated human THP-1 macrophages assessed as reduction in IFN-gamma production at 10 uM incubated for 24 hrs by ELISA coupled qRT-PCR analysis relative to control; assay type: functional; set-up: scale not given: the % may be the effect or the level left
THP-1 [8] = experiment: Antiinflammatory activity in PMA-differentiated human THP-1 macrophages assessed as increase in IL-4 production at 10 uM incubated for 24 hrs in the presence of JTE907 by ELISA coupled qRT-PCR analysis; assay type: functional, cell-based
THP-1 [9] = experiment: Antiinflammatory activity in PMA-differentiated human THP-1 macrophages assessed as decrease in IL-1beta production at 10 uM incubated for 24 hrs in the presence of JTE907 by ELISA coupled qRT-PCR analysis; assay type: functional, cell-based
THP-1 [10] = experiment: Antiinflammatory activity in PMA-differentiated human THP-1 macrophages assessed as decrease in TNF-alpha production at 10 uM incubated for 24 hrs in the presence of JTE907 by ELISA coupled qRT-PCR analysis; assay type: functional, cell-based
THP-1 [11] = experiment: Antiinflammatory activity in LPS-activated PMA-differentiated human THP-1 macrophages assessed as decrease in IL-1beta production at 10 uM incubated for 24 hrs in the presence of JTE907 by ELISA coupled qRT-PCR analysis; assay type: functional, cell-based
THP-1 [12] = experiment: Antiinflammatory activity in LPS-activated PMA-differentiated human THP-1 macrophages assessed as decrease in TNF-alpha production at 10 uM incubated for 24 hrs in the presence of JTE907 by ELISA coupled qRT-PCR analysis; assay type: functional, cell-based
THP-1 [13] = experiment: Antiinflammatory activity against LPS-activated human THP-1 monocytes assessed as increase in IL-4 production at 10 uM incubated for 24 hrs in the presence of N-(adamantan-1-yl)-4-(pentylamino)-[1,1'-biphenyl]-3-carboxamide by ELISA coupled qRT-PCR analysis; assay type: functional, cell-based
THP-1 [14] = experiment: Antiinflammatory activity in PMA-differentiated human THP-1 monocytes assessed as decrease in IFN-gamma production at 10 uM incubated for 24 hrs in the presence of N-(adamantan-1-yl)-4-(pentylamino)-[1,1'-biphenyl]-3-carboxamide by ELISA coupled qRT-PCR analysis; assay type: functional, cell-based
THP-1 [15] = experiment: Antiinflammatory activity against LPS-activated PMA-differentiated human THP-1 monocytes assessed as decrease in IL-6 production at 10 uM incubated for 24 hrs in the presence of N-(adamantan-1-yl)-4-(pentylamino)-[1,1'-biphenyl]-3-carboxamide by ELISA coupled qRT-PCR analysis; assay type: functional, cell-based
THP-1 [16] = experiment: Antiinflammatory activity in human THP-1 monocytes assessed as increase in IL-4 production incubated for 24 hrs by ELISA coupled qRT-PCR analysis; assay type: functional, cell-based; settings: dose 1-10 µM
THP-1 [17] = experiment: Antiinflammatory activity in human THP-1 monocytes assessed as decrease in IL-6 production at 1 to 10 uM incubated for 24 hrs in the presence of JTE907 by ELISA coupled qRT-PCR analysis; assay type: functional, cell-based; settings: dose 1-10 µM
THP-1 [18] = experiment: Antiinflammatory activity in human THP-1 monocytes assessed as increase in IL-10 production at 1 to 10 uM incubated for 24 hrs in the presence of JTE907 by ELISA coupled qRT-PCR analysis; assay type: functional, cell-based; settings: dose 1-10 µM
THP-1 [19] = experiment: Antiinflammatory against LPS-activated human THP-1 monocytes assessed as increase in IL-10 production at 1 to 10 uM incubated for 24 hrs in the presence of JTE907 by ELISA coupled qRT-PCR analysis; assay type: functional, cell-based; settings: dose 1-10 µM
THP-1 [20] = experiment: Antiinflammatory against LPS-activated human THP-1 monocytes assessed as decrease in TNF-alpha production at 1 to 10 uM incubated for 24 hrs in the presence of JTE907 by ELISA coupled qRT-PCR analysis; assay type: functional, cell-based; settings: dose 1-10 µM
THP-1 [21] = experiment: Antiinflammatory against LPS-activated human THP-1 monocytes assessed as decrease in IL-1beta production at 1 to 10 uM incubated for 24 hrs in the presence of JTE907 by ELISA coupled qRT-PCR analysis; assay type: functional, cell-based; settings: dose 1-10 µM
THP-1 [22] = experiment: Antiinflammatory activity in PMA-differentiated human THP-1 macrophages assessed as reduction in IFN-gamma production at 1 to 10 uM incubated for 24 hrs by ELISA coupled qRT-PCR analysis relative to control; assay type: functional; set-up: scale not given: the % may be the effect or the level left; settings: dose 1-10 µM
THP-1 [23] = experiment: Antiinflammatory activity in PMA-differentiated human THP-1 macrophages assessed as reduction in IL-1beta production at 1 to 10 uM incubated for 24 hrs by ELISA coupled qRT-PCR analysis relative to control; assay type: functional; set-up: scale not given: the % may be the effect or the level left; settings: dose 1-10 µM
THP-1 [24] = experiment: Antiinflammatory activity against LPS-activated PMA-differentiated human THP-1 macrophages assessed as increase in IL-4 production at 1 to 10 uM incubated for 24 hrs by ELISA coupled qRT-PCR analysis; assay type: functional, cell-based; settings: dose 1-10 µM
THP-1 [25] = experiment: Antiinflammatory activity in PMA-differentiated human THP-1 macrophages assessed as decrease in IL-6 production at 1 to 10 uM incubated for 24 hrs in the presence of JTE907 by ELISA coupled qRT-PCR analysis; assay type: functional, cell-based; settings: dose 1-10 µM
THP-1 [26] = experiment: Antiinflammatory activity in PMA-differentiated human THP-1 macrophages assessed as decrease in IFN-gamma production at 1 to 10 uM incubated for 24 hrs in the presence of JTE907 by ELISA coupled qRT-PCR analysis; assay type: functional, cell-based; settings: dose 1-10 µM
THP-1 [27] = experiment: Antiinflammatory activity in PMA-differentiated human THP-1 macrophages assessed as decrease in TNF-alpha production at 1 to 10 uM incubated for 24 hrs in the presence of JTE907 by ELISA coupled qRT-PCR analysis; assay type: functional, cell-based; settings: dose 1-10 µM
THP-1 [28] = experiment: Antiinflammatory activity in LPS-activated PMA-differentiated human THP-1 macrophages assessed as decrease in IL-6 production at 1 to 10 uM incubated for 24 hrs in the presence of JTE907 by ELISA coupled qRT-PCR analysis; assay type: functional, cell-based; settings: dose 1-10 µM

O=C(NC1CCCCC1)c1cn(CCN2CCOCC2)c2cc(Cl)ccc2c1=O
Activity (THP-1 [1]): Active
Activity (THP-1 [2]): inactive
Activity (THP-1 [3]): inactive
Activity (THP-1 [4]): inactive
Activity (THP-1 [5]): inactive
Activity (THP-1 [6]): inactive
Activity (THP-1 [7]): 50%
Activity (THP-1 [8]): inactive
Activity (THP-1 [9]): inactive
Activity (THP-1 [10]): inactive
Activity (THP-1 [11]): inactive
Activity (THP-1 [12]): inactive
Activity (THP-1 [13]): inactive
Activity (THP-1 [14]): inactive
Activity (THP-1 [15]): inactive

CCCCCNc1ccccc1C(=O)NC12CC3CC(CC(C3)C1)C2
Activity (THP-1 [16]): Dose-Dependent Effect
Activity (THP-1 [17]): inactive
Activity (THP-1 [18]): inactive
Activity (THP-1 [19]): inactive
Activity (THP-1 [20]): inactive
Activity (THP-1 [21]): inactive
Activity (THP-1 [22]): 50%
Activity (THP-1 [23]): 50%
Activity (THP-1 [24]): Active
Activity (THP-1 [25]): inactive
Activity (THP-1 [26]): inactive
Activity (THP-1 [27]): inactive
Activity (THP-1 [28]): inactive
